Assay results as given in PubChem BioAssay AID330 (DTP/NCI, 2004).
Where “and” joins values, the source holds several entries; their conditions need not be identical. Equal entries are not always repeated. Toxic doses and inconclusive results are not listed. Rule for the calls: active = survival T/C of 150% or more; inactive = T/C below 125% in these data.

Test system: P388 leukemia ip, CD2F1 mice, survival T/C
Experiment: NCI In Vivo Anticancer Drug Screen. Data for tumor model P388 Leukemia (intraperitoneal) in CD2F1 (CDF1) mice
Conditions: endpoint: median survival time, higher = longer survival
In short: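 Mice carrying the transplanted tumor received test compound or vehicle. Survival was recorded in each group, and the value is the treated-group measurement divided by that of the vehicle-treated control group.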

[1] = dose: 12.5 mg/kg/injection, schedule: Q01DX009 (ip), vehicle: Klucel (hydroxypropylcellulose) (HPC)
[2] = dose: 25.0 mg/kg/injection, schedule: Q01DX009 (ip), vehicle: Klucel (hydroxypropylcellulose) (HPC)
[3] = dose: 25.0 mg/kg/injection, schedule: Q01DX009 (ip), vehicle: saline with Tween-80
[4] = dose: 50.0 mg/kg/injection, schedule: Q01DX009 (ip), vehicle: Klucel (hydroxypropylcellulose) (HPC)
[5] = dose: 50.0 mg/kg/injection, schedule: Q01DX009 (ip), vehicle: saline with Tween-80
[6] = dose: 100.0 mg/kg/injection, schedule: Q01DX009 (ip), vehicle: Klucel (hydroxypropylcellulose) (HPC)
[7] = dose: 100.0 mg/kg/injection, schedule: Q01DX009 (ip), vehicle: saline with Tween-80
[8] = dose: 100.0 mg/kg/injection, schedule: Q04DX002 (ip), vehicle: saline with Tween-80
[9] = dose: 200.0 mg/kg/injection, schedule: Q01DX009 (ip), vehicle: saline with Tween-80
[10] = dose: 200.0 mg/kg/injection, schedule: Q04DX002 (ip), vehicle: saline with Tween-80
[11] = dose: 400.0 mg/kg/injection, schedule: Q04DX002 (ip), vehicle: saline with Tween-80
[12] = dose: 25.0 mg/kg/injection, schedule: Q01DX005 (ip), vehicle: saline with Tween-80
[13] = dose: 50.0 mg/kg/injection, schedule: Q01DX005 (ip), vehicle: saline with Tween-80
[14] = dose: 100.0 mg/kg/injection, schedule: Q01DX005 (ip), vehicle: saline with Tween-80
[15] = dose: 200.0 mg/kg/injection, schedule: Q01DX005 (ip), vehicle: saline with Tween-80
[16] = dose: 100.0 mg/kg/injection, schedule: Q01DX009 (ip), vehicle: saline
[17] = dose: 200.0 mg/kg/injection, schedule: Q01DX009 (ip), vehicle: saline

Measured: T/C

ClC1C(Cl)C(Cl)C(Cl)C(Cl)C1Cl (configuration not stated)
inactive: [1] 104 % of control and 113 % of control | [2] 104 % of control and 97 % of control | [3] 100 % of control and 104 % of control | [4] 105 % of control and 98 % of control | [5] 100 % of control and 108 % of control | dose: 50.0 mg/kg/injection, schedule: Q04DX002 (ip), vehicle: saline with Tween-80 100 % of control | [6] 89 % of control and 95 % of control | [7] 100 % of control and 108 % of control | [8] 100 % of control | dose: 150.0 mg/kg/injection, schedule: Q01DX009 (ip), vehicle: Klucel (hydroxypropylcellulose) (HPC) 99 % of control and 87 % of control | [9] 100 % of control and 110 % of control | [10] 90 % of control | dose: 400.0 mg/kg/injection, schedule: Q01DX009 (ip), vehicle: saline with Tween-80 101 % of control and 114 % of control

CCCCCCCCCCCCCCCC(=O)N(CCCN(CC)CC)C(C)CCCN(CC)CC (configuration not stated)
inactive: dose: 0.38 mg/kg/injection, schedule: Q01DX009 (ip), vehicle: water 96 % of control | dose: 0.75 mg/kg/injection, schedule: Q01DX009 (ip), vehicle: water 98 % of control | dose: 1.5 mg/kg/injection, schedule: Q01DX009 (ip), vehicle: water 98 % of control | dose: 3.0 mg/kg/injection, schedule: Q01DX009 (ip), vehicle: water 95 % of control | dose: 6.0 mg/kg/injection, schedule: Q01DX009 (ip), vehicle: water 92 % of control

Cc1cc(=O)[nH][nH]1
inactive: [8] 97 % of control | [10] 100 % of control | [11] 94 % of control

CCOC(=O)CC1(C)SCCN1C(=O)OCC (configuration not stated)
inactive: [12] 102 % of control | [13] 98 % of control | [14] 91 % of control | [15] 105 % of control

N=c1nc(N)ncn1-c1ccccc1
inactive: dose: 1.56 mg/kg/injection, schedule: Q01DX005 (ip), vehicle: saline with Tween-80 99 % of control and 102 % of control | dose: 3.13 mg/kg/injection, schedule: Q01DX005 (ip), vehicle: saline with Tween-80 103 % of control and 104 % of control | dose: 6.25 mg/kg/injection, schedule: Q01DX005 (ip), vehicle: saline with Tween-80 99 % of control and 102 % of control | dose: 12.5 mg/kg/injection, schedule: Q01DX005 (ip), vehicle: saline with Tween-80 102 % of control and 104 % of control and 108 % of control

O=c1cc[nH]c(=O)[nH]1
inactive: dose: 32.0 mg/kg/injection, schedule: Q01DX009 (ip), vehicle: Klucel (hydroxypropylcellulose) (HPC) 99 % of control and 106 % of control | dose: 32.0 mg/kg/injection, schedule: Q01DX009 (ip), vehicle: saline with Tween-80 114 % of control | dose: 64.0 mg/kg/injection, schedule: Q01DX009 (ip), vehicle: Klucel (hydroxypropylcellulose) (HPC) 98 % of control and 100 % of control | dose: 64.0 mg/kg/injection, schedule: Q01DX009 (ip), vehicle: saline with Tween-80 100 % of control | [16] 98 % of control | dose: 128.0 mg/kg/injection, schedule: Q01DX009 (ip), vehicle: Klucel (hydroxypropylcellulose) (HPC) 99 % of control and 102 % of control | dose: 128.0 mg/kg/injection, schedule: Q01DX009 (ip), vehicle: saline with Tween-80 95 % of control | [17] 100 % of control | dose: 256.0 mg/kg/injection, schedule: Q01DX009 (ip), vehicle: Klucel (hydroxypropylcellulose) (HPC) 100 % of control and 109 % of control | dose: 256.0 mg/kg/injection, schedule: Q01DX009 (ip), vehicle: saline with Tween-80 100 % of control | dose: 400.0 mg/kg/injection, schedule: Q01DX009 (ip), vehicle: saline 102 % of control | dose: 512.0 mg/kg/injection, schedule: Q01DX009 (ip), vehicle: Klucel (hydroxypropylcellulose) (HPC) 108 % of control and 109 % of control | dose: 512.0 mg/kg/injection, schedule: Q01DX009 (ip), vehicle: saline with Tween-80 97 % of control

CCCCCCCCCCCCCCCCCCOC(=O)CCN
inactive: [13] 101 % of control | [14] 109 % of control | [15] 113 % of control

NC(N)=NC(N)=Nc1ccc2c(Cl)c(Cl)ccc2c1
inactive: dose: 6.0 mg/kg/injection, schedule: Q01DX005 (ip), vehicle: saline with Tween-80 96 % of control | dose: 12.0 mg/kg/injection, schedule: Q01DX005 (ip), vehicle: saline with Tween-80 111 % of control | dose: 22.0 mg/kg/injection, schedule: Q04DX003 (ip), vehicle: saline with Tween-80 104 % of control | [12] 104 % of control | dose: 25.0 mg/kg/injection, schedule: Q04DX003 (ip), vehicle: saline with Tween-80 120 % of control | dose: 33.0 mg/kg/injection, schedule: Q04DX003 (ip), vehicle: saline with Tween-80 100 % of control | [13] 93 % of control | dose: 50.0 mg/kg/injection, schedule: Q04DX003 (ip), vehicle: saline with Tween-80 118 % of control

CCN(CC)C(=S)S[Se](SC(=S)N(CC)CC)(SC(=S)N(CC)CC)SC(=S)N(CC)CC
inactive: [1] 103 % of control | [2] 100 % of control | [4] 97 % of control | [6] 104 % of control

C(=N\N1CCCCCC1)/c1ccc2c(c1)OCO2
inactive: [3] 90 % of control | [5] 95 % of control | [7] 90 % of control

C#CCSc1nnnn1-c1ccc(Br)c(C)c1
inactive: dose: 50.0 mg/kg/injection, schedule: Q01DX005 (ip), vehicle: Klucel (hydroxypropylcellulose) (HPC) 101 % of control | dose: 100.0 mg/kg/injection, schedule: Q01DX005 (ip), vehicle: Klucel (hydroxypropylcellulose) (HPC) 92 % of control | dose: 200.0 mg/kg/injection, schedule: Q01DX005 (ip), vehicle: Klucel (hydroxypropylcellulose) (HPC) 101 % of control

CC(=O)Nc1nnc(-c2cc(=O)c3cc(C)ccc3o2)s1
inactive: [13] 92 % of control | [14] 91 % of control | [15] 90 % of control

COC(=O)C1(c2ccccc2)N=C1N(C)C (configuration not stated)
inactive: [8] 94 % of control | [10] 94 % of control | [11] 102 % of control

CC(=O)C(N=Nc1ccc(S(=O)(=O)Nc2ncccn2)cc1)C(C)=O
inactive: dose: 100.0 mg/kg/injection, schedule: Q04DX003 (ip), vehicle: saline with Tween-80 92 % of control | dose: 200.0 mg/kg/injection, schedule: Q04DX003 (ip), vehicle: saline with Tween-80 88 % of control | dose: 400.0 mg/kg/injection, schedule: Q04DX003 (ip), vehicle: saline with Tween-80 90 % of control

CCC(c1ccc(O)cc1)C(CC)c1ccc(OCC(N)=O)cc1 (configuration not stated)
inactive: dose: 60.0 mg/kg/injection, schedule: Q01DX005 (ip), vehicle: saline with Tween-80 92 % of control | dose: 120.0 mg/kg/injection, schedule: Q01DX005 (ip), vehicle: saline with Tween-80 94 % of control | dose: 240.0 mg/kg/injection, schedule: Q01DX005 (ip), vehicle: saline with Tween-80 94 % of control

CC(=O)Nc1nnc(-c2cc(=O)c3cc(Cl)ccc3o2)s1
inactive: [13] 101 % of control | [14] 92 % of control | [15] 97 % of control

COc1ccc(N=C(N=C(NC(=O)c2ccccc2)c2ccccc2)c2ccccc2)cc1
inactive: [5] 104 % of control and 95 % of control | [7] 103 % of control and 92 % of control | [9] 100 % of control

NC(=S)N/N=C/c1ccc(OC(F)(F)F)cn1
inactive: dose: 1.56 mg/kg/injection, schedule: Q01DX009 (ip), vehicle: saline with Tween-80 101 % of control | dose: 3.13 mg/kg/injection, schedule: Q01DX009 (ip), vehicle: saline with Tween-80 101 % of control and 107 % of control | dose: 6.25 mg/kg/injection, schedule: Q01DX009 (ip), vehicle: saline with Tween-80 100 % of control and 95 % of control | dose: 12.5 mg/kg/injection, schedule: Q01DX009 (ip), vehicle: saline with Tween-80 99 % of control and 101 % of control | [3] 101 % of control | [5] 114 % of control

O=C(O)C1CSC2(CCCCC2)N1 (configuration not stated)
inactive: dose: 50.0 mg/kg/injection, schedule: Q04DX003 (ip), vehicle: saline 104 % of control | dose: 100.0 mg/kg/injection, schedule: Q04DX003 (ip), vehicle: saline 95 % of control | dose: 200.0 mg/kg/injection, schedule: Q04DX003 (ip), vehicle: saline 99 % of control | dose: 400.0 mg/kg/injection, schedule: Q04DX003 (ip), vehicle: saline 96 % of control

CSc1nc2nc[nH]c(=O)c2[nH]1
inactive: [12] 95 % of control | [13] 99 % of control | [14] 94 % of control

CS[P+]1(C)C=C(N2CCOCC2)CC1 (configuration not stated)
inactive: dose: 50.0 mg/kg/injection, schedule: Q01DX009 (ip), vehicle: saline 101 % of control | [16] 96 % of control | [17] 96 % of control
